Laboratory results from the kinase profiling compilation of Christmann-Franck et al. (2016).

Tests used:
Experiment in all cases: KINOMEscan competition binding
Conditions in all cases: compound 0.1 µM
ABL2 (human) = ABL2 (human) (UniProt P42684)
CDK16 (human) = CDK16 (human) (UniProt Q00536)
TTK (human) = TTK (human) (UniProt P33981)
STK16 (human) = STK16 (human) (UniProt O75716)
MAP4K3 (human) = MAP4K3 (human) (UniProt Q8IVH8)
[1] = test system: MET (human), P08581 [M1250T]
FER (human) = FER (human) (UniProt P16591)
[2] = test system: FLT3 (human), P36888 [D835H]
SRPK2 (human) = SRPK2 (human) (UniProt P78362)
[3] = test system: ABL1 (human), P00519 [F317I]
CSNK1G3 (human) = CSNK1G3 (human) (UniProt Q9Y6M4)
ICK (human) = ICK (human) (UniProt Q9UPZ9)
CDK17 (human) = CDK17 (human) (UniProt Q00537)
ERN1 (human) = ERN1 (human) (UniProt O75460)
PTK2B (human) = PTK2B (human) (UniProt Q14289)
CDK3 (human) = CDK3 (human) (UniProt Q00526)
TAOK1 (human) = TAOK1 (human) (UniProt Q7L7X3)
GSK3A (human) = GSK3A (human) (UniProt P49840)
FYN (human) = FYN (human) (UniProt P06241)
NTRK1 (human) = NTRK1 (human) (UniProt P04629)
MAP3K14 (human) = MAP3K14 (human) (UniProt Q99558)
MAPK8 (human) = MAPK8 (human) (UniProt P45983)
Chain of MAPK8 (human) (P45983 whole entry, looked up): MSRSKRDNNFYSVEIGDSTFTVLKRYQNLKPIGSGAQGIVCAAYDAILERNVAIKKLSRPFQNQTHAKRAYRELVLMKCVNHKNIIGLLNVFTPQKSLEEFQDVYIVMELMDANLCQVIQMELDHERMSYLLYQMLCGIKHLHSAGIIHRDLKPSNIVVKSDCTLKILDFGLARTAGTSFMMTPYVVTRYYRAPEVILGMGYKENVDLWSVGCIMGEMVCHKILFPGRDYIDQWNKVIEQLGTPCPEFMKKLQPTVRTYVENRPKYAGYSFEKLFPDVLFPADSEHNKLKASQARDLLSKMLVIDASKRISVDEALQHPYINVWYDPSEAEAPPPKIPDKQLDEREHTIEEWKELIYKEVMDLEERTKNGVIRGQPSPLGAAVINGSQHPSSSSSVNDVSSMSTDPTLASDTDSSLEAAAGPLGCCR

ERBB2 (human) = ERBB2 (human) (UniProt P04626)
TRPM6 (human) = TRPM6 (human) (UniProt Q9BX84)
[4] = test system: PIK3CA (human), P42336 [Q546K]
STK38L (human) = STK38L (human) (UniProt Q9Y2H1)
RET (human) = RET (human) (UniProt P07949)
Chain of RET (human) (P07949 whole entry, looked up): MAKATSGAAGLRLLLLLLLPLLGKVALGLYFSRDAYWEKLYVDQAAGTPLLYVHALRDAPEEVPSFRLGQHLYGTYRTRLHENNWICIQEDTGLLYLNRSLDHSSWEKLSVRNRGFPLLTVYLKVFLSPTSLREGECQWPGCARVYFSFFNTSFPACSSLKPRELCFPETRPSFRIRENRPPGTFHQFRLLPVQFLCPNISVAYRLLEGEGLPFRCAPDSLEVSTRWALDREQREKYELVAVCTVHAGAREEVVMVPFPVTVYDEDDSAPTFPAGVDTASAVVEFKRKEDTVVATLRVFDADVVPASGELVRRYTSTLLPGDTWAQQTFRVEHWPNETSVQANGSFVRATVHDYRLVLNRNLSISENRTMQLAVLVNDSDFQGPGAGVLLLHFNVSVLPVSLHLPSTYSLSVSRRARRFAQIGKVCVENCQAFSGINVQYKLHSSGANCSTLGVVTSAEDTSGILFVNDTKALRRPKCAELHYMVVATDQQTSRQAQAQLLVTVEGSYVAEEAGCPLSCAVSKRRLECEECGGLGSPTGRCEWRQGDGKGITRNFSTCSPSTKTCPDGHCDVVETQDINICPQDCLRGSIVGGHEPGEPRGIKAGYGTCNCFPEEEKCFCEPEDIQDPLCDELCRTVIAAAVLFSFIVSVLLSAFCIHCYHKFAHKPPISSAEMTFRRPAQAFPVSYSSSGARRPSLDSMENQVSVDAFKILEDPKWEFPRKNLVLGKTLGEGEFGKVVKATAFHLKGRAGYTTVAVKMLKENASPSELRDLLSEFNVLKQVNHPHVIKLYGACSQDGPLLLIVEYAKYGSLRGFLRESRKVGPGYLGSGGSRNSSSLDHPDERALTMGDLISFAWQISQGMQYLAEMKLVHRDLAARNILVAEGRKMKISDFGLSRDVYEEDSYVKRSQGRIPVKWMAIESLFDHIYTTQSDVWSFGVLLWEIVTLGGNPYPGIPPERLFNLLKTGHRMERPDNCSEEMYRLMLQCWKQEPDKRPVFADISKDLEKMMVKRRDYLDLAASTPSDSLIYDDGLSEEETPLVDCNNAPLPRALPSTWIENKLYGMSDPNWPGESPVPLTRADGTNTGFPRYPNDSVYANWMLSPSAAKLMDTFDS

LATS2 (human) = LATS2 (human) (UniProt Q9NRM7)
Chain of LATS2 (human) (Q9NRM7 whole entry, looked up): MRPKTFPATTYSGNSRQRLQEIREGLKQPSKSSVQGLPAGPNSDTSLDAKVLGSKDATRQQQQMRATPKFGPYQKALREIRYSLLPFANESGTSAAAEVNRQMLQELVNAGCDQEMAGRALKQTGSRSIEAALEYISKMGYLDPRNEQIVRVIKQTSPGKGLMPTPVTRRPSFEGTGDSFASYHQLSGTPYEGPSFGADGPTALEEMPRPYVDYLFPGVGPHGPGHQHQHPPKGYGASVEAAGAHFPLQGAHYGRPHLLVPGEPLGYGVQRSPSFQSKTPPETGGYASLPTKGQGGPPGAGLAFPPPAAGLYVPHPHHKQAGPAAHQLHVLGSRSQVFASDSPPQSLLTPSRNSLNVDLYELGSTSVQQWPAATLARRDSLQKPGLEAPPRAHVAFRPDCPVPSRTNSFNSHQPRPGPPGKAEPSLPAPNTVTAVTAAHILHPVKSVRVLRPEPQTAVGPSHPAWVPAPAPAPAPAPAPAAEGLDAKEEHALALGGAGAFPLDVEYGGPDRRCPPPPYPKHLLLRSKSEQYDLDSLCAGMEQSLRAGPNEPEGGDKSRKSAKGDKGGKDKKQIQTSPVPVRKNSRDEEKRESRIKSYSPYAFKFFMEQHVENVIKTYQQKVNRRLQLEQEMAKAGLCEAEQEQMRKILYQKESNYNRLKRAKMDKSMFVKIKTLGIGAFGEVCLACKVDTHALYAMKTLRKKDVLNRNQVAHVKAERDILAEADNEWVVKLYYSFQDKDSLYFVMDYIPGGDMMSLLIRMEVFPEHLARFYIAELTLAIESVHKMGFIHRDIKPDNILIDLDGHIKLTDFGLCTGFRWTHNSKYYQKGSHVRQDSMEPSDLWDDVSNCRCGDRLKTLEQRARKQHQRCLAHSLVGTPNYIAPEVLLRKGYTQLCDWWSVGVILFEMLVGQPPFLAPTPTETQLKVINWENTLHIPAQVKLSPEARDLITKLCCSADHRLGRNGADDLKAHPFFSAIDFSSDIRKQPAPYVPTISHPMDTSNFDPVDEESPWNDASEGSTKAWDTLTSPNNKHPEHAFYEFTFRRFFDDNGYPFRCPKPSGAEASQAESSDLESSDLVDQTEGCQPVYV

EIF2AK2 (human) = EIF2AK2 (human) (UniProt P19525)
PIK3C2G (human) = PIK3C2G (human) (UniProt O75747)
Chain of PIK3C2G (human) (O75747 whole entry, looked up): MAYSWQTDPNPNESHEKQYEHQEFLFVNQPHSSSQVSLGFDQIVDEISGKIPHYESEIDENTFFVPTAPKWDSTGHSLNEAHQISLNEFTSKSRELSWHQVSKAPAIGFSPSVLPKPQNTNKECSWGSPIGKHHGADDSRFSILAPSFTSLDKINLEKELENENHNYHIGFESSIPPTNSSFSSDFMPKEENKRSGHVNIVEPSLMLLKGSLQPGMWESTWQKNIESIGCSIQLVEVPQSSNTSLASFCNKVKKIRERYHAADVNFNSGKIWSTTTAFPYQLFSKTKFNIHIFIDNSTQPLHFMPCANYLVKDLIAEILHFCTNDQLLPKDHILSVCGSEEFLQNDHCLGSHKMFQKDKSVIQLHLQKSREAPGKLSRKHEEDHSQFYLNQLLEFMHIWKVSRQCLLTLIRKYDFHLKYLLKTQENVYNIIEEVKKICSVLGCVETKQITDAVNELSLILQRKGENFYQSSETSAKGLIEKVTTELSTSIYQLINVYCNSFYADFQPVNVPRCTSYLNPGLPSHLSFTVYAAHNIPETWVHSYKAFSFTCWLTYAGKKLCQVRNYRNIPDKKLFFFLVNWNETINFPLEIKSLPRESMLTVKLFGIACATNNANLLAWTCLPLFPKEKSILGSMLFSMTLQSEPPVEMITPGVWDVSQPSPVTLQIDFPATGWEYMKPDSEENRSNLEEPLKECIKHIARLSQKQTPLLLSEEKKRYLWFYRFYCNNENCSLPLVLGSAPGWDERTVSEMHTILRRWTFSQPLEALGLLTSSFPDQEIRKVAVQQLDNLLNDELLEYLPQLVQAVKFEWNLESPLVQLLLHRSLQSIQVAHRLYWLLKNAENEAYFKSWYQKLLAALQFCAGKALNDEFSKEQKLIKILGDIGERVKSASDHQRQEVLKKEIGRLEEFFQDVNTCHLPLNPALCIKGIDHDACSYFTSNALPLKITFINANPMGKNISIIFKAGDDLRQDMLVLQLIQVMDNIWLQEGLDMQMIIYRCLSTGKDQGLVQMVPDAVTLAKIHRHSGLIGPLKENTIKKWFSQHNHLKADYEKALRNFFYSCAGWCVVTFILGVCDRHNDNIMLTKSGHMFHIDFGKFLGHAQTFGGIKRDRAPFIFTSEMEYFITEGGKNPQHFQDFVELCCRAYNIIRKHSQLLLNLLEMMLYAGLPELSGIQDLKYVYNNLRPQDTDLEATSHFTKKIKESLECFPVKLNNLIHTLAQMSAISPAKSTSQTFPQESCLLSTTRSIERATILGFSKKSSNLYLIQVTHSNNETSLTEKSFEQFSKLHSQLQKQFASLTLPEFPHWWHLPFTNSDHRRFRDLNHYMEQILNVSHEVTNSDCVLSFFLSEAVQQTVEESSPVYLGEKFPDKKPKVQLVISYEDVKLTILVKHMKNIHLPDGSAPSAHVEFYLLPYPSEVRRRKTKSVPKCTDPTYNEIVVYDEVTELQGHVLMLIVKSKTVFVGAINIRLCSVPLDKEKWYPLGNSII

GAK (human) = GAK (human) (UniProt O14976)
[5] = test system: PIK3CA (human), P42336 [I800L]
RIPK1 (human) = RIPK1 (human) (UniProt Q13546)
Chain of RIPK1 (human) (Q13546 whole entry, looked up): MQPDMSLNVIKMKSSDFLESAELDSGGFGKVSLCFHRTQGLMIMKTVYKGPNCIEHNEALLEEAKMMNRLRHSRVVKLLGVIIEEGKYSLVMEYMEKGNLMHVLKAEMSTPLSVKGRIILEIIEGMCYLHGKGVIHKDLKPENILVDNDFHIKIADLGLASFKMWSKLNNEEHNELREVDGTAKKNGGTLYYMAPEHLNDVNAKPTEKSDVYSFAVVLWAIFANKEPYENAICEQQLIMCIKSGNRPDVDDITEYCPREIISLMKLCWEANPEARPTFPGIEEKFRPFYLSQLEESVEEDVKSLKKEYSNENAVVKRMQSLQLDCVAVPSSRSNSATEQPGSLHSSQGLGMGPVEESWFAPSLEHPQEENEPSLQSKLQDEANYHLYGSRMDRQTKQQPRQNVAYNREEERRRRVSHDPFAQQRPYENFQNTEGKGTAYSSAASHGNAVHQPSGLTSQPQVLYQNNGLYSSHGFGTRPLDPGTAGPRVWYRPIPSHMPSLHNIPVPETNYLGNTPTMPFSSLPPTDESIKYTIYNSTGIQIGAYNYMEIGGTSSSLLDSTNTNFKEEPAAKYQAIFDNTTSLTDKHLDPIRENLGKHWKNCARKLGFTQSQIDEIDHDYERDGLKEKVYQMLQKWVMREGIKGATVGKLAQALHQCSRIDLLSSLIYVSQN

SRC (human) = SRC (human) (UniProt P12931)
PIK3C2B (human) = PIK3C2B (human) (UniProt O00750)

Chain of STK16 (human) (O75716 whole entry, looked up): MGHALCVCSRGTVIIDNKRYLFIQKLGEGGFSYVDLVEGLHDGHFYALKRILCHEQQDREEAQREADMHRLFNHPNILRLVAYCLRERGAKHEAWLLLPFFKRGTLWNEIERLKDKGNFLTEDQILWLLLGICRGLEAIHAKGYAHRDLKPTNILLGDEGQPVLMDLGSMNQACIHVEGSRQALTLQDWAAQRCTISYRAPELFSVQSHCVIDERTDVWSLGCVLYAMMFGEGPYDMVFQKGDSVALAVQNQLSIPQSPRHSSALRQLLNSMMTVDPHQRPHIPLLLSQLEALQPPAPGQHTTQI

Question: Which kinase still bound, per cent of control (ABL2 (human)) does the source give for `CCc1ccc(C(=O)Nc2cc(CN3CCN(C)CC3)cc(C(F)(F)F)c2)cc1C#Cc1cnc2ccnn2c1` here?
Answer: 39%

Question: What about the kinase still bound, per cent of control (CDK16 (human)) of the same molecule?
Answer: 100%

Question: What about the kinase still bound, per cent of control (TTK (human)) of the same molecule?
Answer: 77%

Question: What about the kinase still bound, per cent of control (STK16 (human)) of the same molecule?
Answer: 71%

Question: What about the kinase still bound, per cent of control (MAP4K3 (human)) of the same molecule?
Answer: 100%

Question: And the kinase still bound, per cent of control [1]?
Answer: 85%

Question: What about the kinase still bound, per cent of control (FER (human)) of the same molecule?
Answer: 70%

Question: What about the kinase still bound, per cent of control [2] of the same molecule?
Answer: 83%

Question: What about the kinase still bound, per cent of control (SRPK2 (human)) of the same molecule?
Answer: 75%

Question: What about the kinase still bound, per cent of control [3] of the same molecule?
Answer: 83%

Question: What about the kinase still bound, per cent of control (CSNK1G3 (human)) of the same molecule?
Answer: 78%

Question: What about the kinase still bound, per cent of control (ICK (human)) of the same molecule?
Answer: 100%

Question: What about the kinase still bound, per cent of control (CDK17 (human)) of the same molecule?
Answer: 100%

Question: What about the kinase still bound, per cent of control (ERN1 (human)) of the same molecule?
Answer: 100%

Question: And the kinase still bound, per cent of control (PTK2B (human))?
Answer: 90%

Question: What about the kinase still bound, per cent of control (CDK3 (human)) of the same molecule?
Answer: 100%

Question: And the kinase still bound, per cent of control (TAOK1 (human))?
Answer: 100%

Question: What about the kinase still bound, per cent of control (GSK3A (human)) of the same molecule?
Answer: 100%

Question: And the kinase still bound, per cent of control (FYN (human))?
Answer: 72%

Question: What about the kinase still bound, per cent of control (NTRK1 (human)) of the same molecule?
Answer: 75%

Question: And the kinase still bound, per cent of control (MAP3K14 (human))?
Answer: 85%

Question: What about the kinase still bound, per cent of control (MAPK8 (human)) of the same molecule?
Answer: 100%

Question: And the kinase still bound, per cent of control (ERBB2 (human))?
Answer: 61%

Question: And the kinase still bound, per cent of control (TRPM6 (human))?
Answer: 90%

Question: And the kinase still bound, per cent of control [4]?
Answer: 100%

Question: What about the kinase still bound, per cent of control (STK38L (human)) of the same molecule?
Answer: 100%

Question: What about the kinase still bound, per cent of control (RET (human)) of the same molecule?
Answer: 52%

Question: And the kinase still bound, per cent of control (LATS2 (human))?
Answer: 100%

Question: And the kinase still bound, per cent of control (EIF2AK2 (human))?
Answer: 83%

Question: What about the kinase still bound, per cent of control (PIK3C2G (human)) of the same molecule?
Answer: 100%

Question: What about the kinase still bound, per cent of control (GAK (human)) of the same molecule?
Answer: 95%

Question: What about the kinase still bound, per cent of control [5] of the same molecule?
Answer: 100%

Question: What about the kinase still bound, per cent of control (RIPK1 (human)) of the same molecule?
Answer: 100%

Question: And the kinase still bound, per cent of control (SRC (human))?
Answer: 76%

Question: And the kinase still bound, per cent of control (PIK3C2B (human))?
Answer: 100%
